Measured values reported in the kinase profiling compilation of Christmann-Franck et al. (2016).

Columns and labels:
Experiment in all cases: KINOMEscan competition binding
[1] = biological target: GRK7 (human) (UniProt Q8WTQ7); conditions: compound 10.0 µM
[2] = biological target: MYLK (human) (UniProt Q15746); conditions: compound 10.0 µM
[3] = biological target: TNK1 (human) (UniProt Q13470)
[4] = biological target: SIK2 (human) (UniProt Q9H0K1); conditions: compound 10.0 µM
[5] = biological target: CRK2 (P.falciparum) (UniProt P61075); conditions: compound 10.0 µM
[6] = biological target: MINK1 (human) (UniProt Q8N4C8); conditions: compound 10.0 µM
[7] = biological target: FLT3 (human) (UniProt P36888); conditions: compound 10.0 µM
[8] = biological target: NUAK1 (human) (UniProt O60285); conditions: compound 10.0 µM
[9] = test system: EGFR (human), P00533 [L861Q]; conditions: compound 10.0 µM
[10] = biological target: CDK16 (human) (UniProt Q00536); conditions: compound 10.0 µM
[11] = biological target: JAK3 JH1 catalytic (human) (UniProt P52333); conditions: compound 10.0 µM
[12] = biological target: RPS6KA6 KD2 (human) (UniProt Q9UK32)
[13] = test system: EGFR (human), P00533 [T790M/L858R]; conditions: compound 10.0 µM
[14] = biological target: STK3 (human) (UniProt Q13188); conditions: compound 10.0 µM
[15] = biological target: ACVRL1 (human) (UniProt P37023); conditions: compound 10.0 µM
[16] = biological target: NIM1 (human) (UniProt Q8IY84); conditions: compound 10.0 µM
[17] = test system: RET (human), P07949 [V804L]; conditions: compound 10.0 µM
[18] = biological target: CDK13 (human) (UniProt Q14004); conditions: compound 10.0 µM
[19] = biological target: CHEK1 (human) (UniProt O14757); conditions: compound 10.0 µM
[20] = biological target: MAP3K4 (human) (UniProt Q9Y6R4); conditions: compound 10.0 µM
[21] = biological target: HIPK3 (human) (UniProt Q9H422); conditions: compound 10.0 µM
[22] = biological target: CSF1R (human) (UniProt P07333); conditions: compound 10.0 µM
[23] = biological target: BTK (human) (UniProt Q06187); conditions: compound 10.0 µM
[24] = biological target: MAP2K1 (human) (UniProt Q02750); conditions: compound 10.0 µM
[25] = biological target: EIF2AK1 (human) (UniProt Q9BQI3); conditions: compound 10.0 µM
[26] = biological target: DSTYK (human) (UniProt Q6XUX3); conditions: compound 10.0 µM
[27] = biological target: PLK1 (human) (UniProt P53350)
[28] = biological target: STK36 (human) (UniProt Q9NRP7); conditions: compound 10.0 µM
[29] = test system: EGFR (human), P00533 [T790M]; conditions: compound 10.0 µM
[30] = biological target: RET (human) (UniProt P07949); conditions: compound 10.0 µM
[31] = biological target: STK24 (human) (UniProt Q9Y6E0); conditions: compound 10.0 µM
[32] = biological target: CIT (human) (UniProt O14578); conditions: compound 10.0 µM
[33] = biological target: NEK4 (human) (UniProt P51957); conditions: compound 10.0 µM
[34] = biological target: PRKD1 (human) (UniProt Q15139); conditions: compound 10.0 µM
[35] = biological target: STK35 (human) (UniProt Q8TDR2); conditions: compound 10.0 µM
[36] = test system: PIK3CA (human), P42336 [C420R]; conditions: compound 10.0 µM
[37] = test system: FLT3 (human), P36888 [K663Q]; conditions: compound 10.0 µM
[38] = test system: KIT (human), P10721 [A829P]; conditions: compound 10.0 µM
[39] = biological target: MST4 (human) (UniProt Q9P289); conditions: compound 10.0 µM
[40] = test system: PIK3CA (human), P42336 [E542K]; conditions: compound 10.0 µM
Sequence of PIK3CA (human), P42336 [E542K] (P42336 whole entry E542K, looked up): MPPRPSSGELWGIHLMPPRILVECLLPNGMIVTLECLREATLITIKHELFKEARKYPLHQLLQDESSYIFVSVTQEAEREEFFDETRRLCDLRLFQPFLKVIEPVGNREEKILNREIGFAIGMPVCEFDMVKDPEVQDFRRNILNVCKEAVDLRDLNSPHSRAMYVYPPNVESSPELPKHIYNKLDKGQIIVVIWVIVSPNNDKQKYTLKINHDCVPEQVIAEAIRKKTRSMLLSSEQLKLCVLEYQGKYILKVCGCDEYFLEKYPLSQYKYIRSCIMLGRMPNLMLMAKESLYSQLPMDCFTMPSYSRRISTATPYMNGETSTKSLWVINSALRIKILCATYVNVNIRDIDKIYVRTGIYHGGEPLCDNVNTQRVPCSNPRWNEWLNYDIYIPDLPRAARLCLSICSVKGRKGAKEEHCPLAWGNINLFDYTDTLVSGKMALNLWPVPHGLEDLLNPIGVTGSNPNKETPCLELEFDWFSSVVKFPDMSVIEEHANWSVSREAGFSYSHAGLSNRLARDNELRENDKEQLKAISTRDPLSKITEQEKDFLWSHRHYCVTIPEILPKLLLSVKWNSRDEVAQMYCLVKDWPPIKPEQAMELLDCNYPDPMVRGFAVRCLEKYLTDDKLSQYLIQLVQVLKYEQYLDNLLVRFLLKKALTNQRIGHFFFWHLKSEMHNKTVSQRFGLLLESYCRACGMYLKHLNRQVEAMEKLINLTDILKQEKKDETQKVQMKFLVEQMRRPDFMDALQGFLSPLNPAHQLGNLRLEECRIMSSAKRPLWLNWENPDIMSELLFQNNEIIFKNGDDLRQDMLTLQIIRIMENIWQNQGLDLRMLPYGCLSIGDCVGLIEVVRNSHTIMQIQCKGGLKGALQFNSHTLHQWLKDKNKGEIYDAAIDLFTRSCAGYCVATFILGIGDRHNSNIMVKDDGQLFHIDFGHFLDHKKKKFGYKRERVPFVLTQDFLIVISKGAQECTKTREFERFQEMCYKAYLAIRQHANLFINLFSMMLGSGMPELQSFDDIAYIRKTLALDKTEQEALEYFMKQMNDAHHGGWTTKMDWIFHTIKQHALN

Sequence of TNK1 (human) (Q13470 whole entry, looked up): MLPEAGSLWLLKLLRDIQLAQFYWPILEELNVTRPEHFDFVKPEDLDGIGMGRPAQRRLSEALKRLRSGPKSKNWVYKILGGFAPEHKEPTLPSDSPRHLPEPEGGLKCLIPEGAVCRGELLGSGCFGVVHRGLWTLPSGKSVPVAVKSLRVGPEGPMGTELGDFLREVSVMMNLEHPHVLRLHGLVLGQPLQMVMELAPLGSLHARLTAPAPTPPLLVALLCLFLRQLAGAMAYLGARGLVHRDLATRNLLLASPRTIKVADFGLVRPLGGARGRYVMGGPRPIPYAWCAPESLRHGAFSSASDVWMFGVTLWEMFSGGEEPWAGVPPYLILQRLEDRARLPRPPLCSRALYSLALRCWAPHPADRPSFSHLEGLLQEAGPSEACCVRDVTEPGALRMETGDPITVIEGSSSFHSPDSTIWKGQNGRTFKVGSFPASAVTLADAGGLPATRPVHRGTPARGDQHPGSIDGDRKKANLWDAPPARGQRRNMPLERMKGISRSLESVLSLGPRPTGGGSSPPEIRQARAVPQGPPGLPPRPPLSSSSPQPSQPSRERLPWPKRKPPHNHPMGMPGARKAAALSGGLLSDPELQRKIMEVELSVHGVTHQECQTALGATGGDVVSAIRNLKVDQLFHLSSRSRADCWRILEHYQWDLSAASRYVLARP
Sequence of PLK1 (human) (P53350 whole entry, looked up): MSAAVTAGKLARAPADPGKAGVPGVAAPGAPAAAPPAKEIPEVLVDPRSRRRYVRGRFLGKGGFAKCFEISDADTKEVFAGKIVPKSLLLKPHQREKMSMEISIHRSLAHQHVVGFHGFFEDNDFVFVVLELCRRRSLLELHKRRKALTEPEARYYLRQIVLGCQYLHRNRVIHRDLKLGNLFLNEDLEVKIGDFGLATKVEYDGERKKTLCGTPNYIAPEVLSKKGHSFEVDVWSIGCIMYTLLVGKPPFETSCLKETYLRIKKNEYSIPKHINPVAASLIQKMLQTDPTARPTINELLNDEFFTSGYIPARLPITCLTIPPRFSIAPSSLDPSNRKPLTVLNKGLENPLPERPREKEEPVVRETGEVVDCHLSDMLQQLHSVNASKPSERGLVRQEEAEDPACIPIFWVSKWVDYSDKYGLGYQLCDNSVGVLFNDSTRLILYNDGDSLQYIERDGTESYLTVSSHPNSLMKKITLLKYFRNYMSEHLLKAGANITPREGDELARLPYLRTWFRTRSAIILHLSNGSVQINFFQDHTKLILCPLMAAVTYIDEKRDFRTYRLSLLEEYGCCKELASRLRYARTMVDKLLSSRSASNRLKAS
Sequence of RPS6KA6 KD2 (human) (Q9UK32 whole entry, looked up): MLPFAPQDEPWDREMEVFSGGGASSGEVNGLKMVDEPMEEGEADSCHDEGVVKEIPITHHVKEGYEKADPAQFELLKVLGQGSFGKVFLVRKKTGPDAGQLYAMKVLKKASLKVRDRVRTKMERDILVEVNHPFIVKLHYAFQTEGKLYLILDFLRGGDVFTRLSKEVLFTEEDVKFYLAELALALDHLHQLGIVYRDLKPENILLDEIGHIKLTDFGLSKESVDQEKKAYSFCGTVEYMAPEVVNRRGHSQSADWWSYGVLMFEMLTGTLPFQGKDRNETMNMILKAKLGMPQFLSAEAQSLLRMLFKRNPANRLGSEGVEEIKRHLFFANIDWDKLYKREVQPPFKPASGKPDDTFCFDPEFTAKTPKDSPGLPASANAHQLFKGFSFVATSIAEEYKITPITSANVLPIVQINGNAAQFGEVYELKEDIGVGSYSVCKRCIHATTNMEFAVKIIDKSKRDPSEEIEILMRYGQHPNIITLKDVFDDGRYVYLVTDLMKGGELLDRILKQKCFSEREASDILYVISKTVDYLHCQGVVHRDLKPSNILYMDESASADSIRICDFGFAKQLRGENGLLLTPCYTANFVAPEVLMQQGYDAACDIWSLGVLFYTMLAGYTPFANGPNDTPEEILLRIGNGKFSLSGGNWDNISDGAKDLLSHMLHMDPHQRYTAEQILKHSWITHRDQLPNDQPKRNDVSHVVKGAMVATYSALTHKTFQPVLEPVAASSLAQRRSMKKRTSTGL
Sequence of PIK3CA (human), P42336 [C420R] (P42336 whole entry C420R, looked up): as the sequence (P42336 whole entry E542K, looked up) above, with C420R, K542E counted along it
Sequence of CHEK1 (human) (O14757 whole entry, looked up): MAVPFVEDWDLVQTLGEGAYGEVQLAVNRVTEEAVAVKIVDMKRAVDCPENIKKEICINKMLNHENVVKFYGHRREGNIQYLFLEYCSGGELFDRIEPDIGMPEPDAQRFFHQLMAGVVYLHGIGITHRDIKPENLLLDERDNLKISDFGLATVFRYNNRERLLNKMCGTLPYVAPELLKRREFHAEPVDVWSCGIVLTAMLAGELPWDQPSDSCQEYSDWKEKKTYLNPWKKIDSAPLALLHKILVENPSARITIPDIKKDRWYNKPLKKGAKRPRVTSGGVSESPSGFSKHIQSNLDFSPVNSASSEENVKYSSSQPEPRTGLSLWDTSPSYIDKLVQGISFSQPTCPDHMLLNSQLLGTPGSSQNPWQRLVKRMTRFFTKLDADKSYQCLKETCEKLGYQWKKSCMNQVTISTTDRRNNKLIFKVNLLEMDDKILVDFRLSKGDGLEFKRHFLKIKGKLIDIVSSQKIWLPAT
Sequence of MINK1 (human) (Q8N4C8 whole entry, looked up): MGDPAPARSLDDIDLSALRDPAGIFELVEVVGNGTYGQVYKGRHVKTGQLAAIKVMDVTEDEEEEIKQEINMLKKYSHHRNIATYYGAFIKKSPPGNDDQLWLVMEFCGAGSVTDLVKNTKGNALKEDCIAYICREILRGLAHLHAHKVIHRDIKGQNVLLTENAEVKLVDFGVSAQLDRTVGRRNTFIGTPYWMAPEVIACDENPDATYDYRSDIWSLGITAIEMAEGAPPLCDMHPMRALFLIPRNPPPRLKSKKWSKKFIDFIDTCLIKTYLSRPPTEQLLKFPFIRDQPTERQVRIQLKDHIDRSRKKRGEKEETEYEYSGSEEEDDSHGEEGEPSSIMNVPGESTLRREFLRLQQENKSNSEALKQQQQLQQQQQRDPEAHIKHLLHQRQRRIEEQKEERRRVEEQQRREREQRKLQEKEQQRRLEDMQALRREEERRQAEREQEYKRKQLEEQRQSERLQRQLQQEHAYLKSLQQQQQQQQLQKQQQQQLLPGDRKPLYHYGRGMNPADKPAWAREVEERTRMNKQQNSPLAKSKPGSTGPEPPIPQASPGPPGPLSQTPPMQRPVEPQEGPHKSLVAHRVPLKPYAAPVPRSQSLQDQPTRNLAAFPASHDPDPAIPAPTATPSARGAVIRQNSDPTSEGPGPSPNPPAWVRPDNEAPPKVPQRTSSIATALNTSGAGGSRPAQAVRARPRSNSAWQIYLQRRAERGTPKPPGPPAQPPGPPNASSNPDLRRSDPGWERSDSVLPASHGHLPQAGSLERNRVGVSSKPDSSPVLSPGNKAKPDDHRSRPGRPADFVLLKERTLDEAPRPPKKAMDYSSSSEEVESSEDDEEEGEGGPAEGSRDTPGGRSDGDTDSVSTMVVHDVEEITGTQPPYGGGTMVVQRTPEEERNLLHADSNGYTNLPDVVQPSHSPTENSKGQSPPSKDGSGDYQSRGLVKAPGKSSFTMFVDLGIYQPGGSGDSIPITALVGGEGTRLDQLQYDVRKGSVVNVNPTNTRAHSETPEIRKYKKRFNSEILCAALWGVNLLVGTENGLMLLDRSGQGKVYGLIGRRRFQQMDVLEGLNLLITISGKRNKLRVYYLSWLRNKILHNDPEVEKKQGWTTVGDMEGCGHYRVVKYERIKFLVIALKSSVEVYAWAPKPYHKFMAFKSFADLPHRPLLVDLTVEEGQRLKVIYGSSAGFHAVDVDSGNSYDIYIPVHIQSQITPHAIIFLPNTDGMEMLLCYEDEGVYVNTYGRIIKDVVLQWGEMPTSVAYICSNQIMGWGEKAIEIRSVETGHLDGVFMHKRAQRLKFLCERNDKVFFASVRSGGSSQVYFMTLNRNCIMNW

`COc1cc(C(=O)N2CCC(N3CCN(C)CC3)CC2)ccc1Nc1ncc2c(n1)N(C)c1ccccc1C(=O)N2C` was tested, and the kinase still bound, per cent of control [1] was 100%, the residual activity [2] was 8.7% and the Kd [3] was 23 nM. For the same compound, the kinase still bound, per cent of control ([3]; compound 10.0 µM) was 2.8%, the kinase still bound, per cent of control [4] was 98% and the kinase still bound, per cent of control [5] was 100%. For the same compound, the kinase still bound, per cent of control [6] was 77%, the kinase still bound, per cent of control [7] was 100% and the kinase still bound, per cent of control [8] was 47%. The kinase still bound, per cent of control [9] was 100%, the residual activity [10] was 96% and the kinase still bound, per cent of control [11] was 100%. For the same compound, the Kd [12] was 620 nM, the kinase still bound, per cent of control ([12]; compound 10.0 µM) was 2.2% and the kinase still bound, per cent of control [13] was 84%. For the same compound, the kinase still bound, per cent of control [14] was 71%, the kinase still bound, per cent of control [15] was 100% and the kinase still bound, per cent of control [16] was 100%. It also gave a kinase still bound, per cent of control [17] of 89%, a residual activity [18] of 100% and a kinase still bound, per cent of control [19] of 100%. It also gave a kinase still bound, per cent of control [20] of 100%, a kinase still bound, per cent of control [21] of 89% and a kinase still bound, per cent of control [22] of 98%. It also gave a kinase still bound, per cent of control [23] of 100%, a kinase still bound, per cent of control [24] of 100% and a kinase still bound, per cent of control [25] of 100%. It also gave a kinase still bound, per cent of control [26] of 16%, a Kd [27] of 75 nM and a kinase still bound, per cent of control ([27]; compound 10.0 µM) of 0.7%. It also gave a kinase still bound, per cent of control [28] of 97%, a kinase still bound, per cent of control [29] of 88% and a kinase still bound, per cent of control [30] of 100%. It also gave a kinase still bound, per cent of control [31] of 87%, a kinase still bound, per cent of control [32] of 99% and a kinase still bound, per cent of control [33] of 95%. It also gave a kinase still bound, per cent of control [34] of 28%, a kinase still bound, per cent of control [35] of 100% and a kinase still bound, per cent of control [36] of 89%. The kinase still bound, per cent of control [37] was 97%, the kinase still bound, per cent of control [38] was 100% and the kinase still bound, per cent of control [39] was 95%. The kinase still bound, per cent of control [40] was 77%.
